From patent US4842845A, “Radioactive metal chelates for dipyridoxyl phosphate” (Salutar, Inc., priority 1987, dated 1989)

Test: Potentiometric titration of DPDP (pH 11.2 to 2.0), protonation sites
Assay type: physicochemical
Details: at a pH of 3 and above
Description: The compound DPDP was studied potentiometrically from pH 11.2 to 2.0. Data sets were collected on a custom-built automatic potentiometric titration apparatus composed of a METROHM 655 DOSIMAT automatic buret, a FISHER ACCUMET pH meter with a CORNING calomel combination electrode, a custom-blown water jacketed titration cell, a BRINKMAN LAUDA K-2/R constant temperature bath and a COMMODORE 64 computer. […] Data analysis was performed on an IBM-AT computer using the least squares program, BETA (Harris, W. et al, supra), and the data analysis program, HANDNBAR (Harris, W. et al, supra). […] All solutions were made from distilled, deionized water that was further purified on a MILLI-Q cartridge system, degassed, and then kept under an atmosphere of argon which had been scrubbed for CO2 and O2.

Cc1ncc(COP(=O)(O)O)c(CN(CCN(CC(=O)O)Cc2c(COP(=O)(O)O)cnc(C)c2O)CC(=O)O)c1O [DPDP, N,N'-bis-(pyridoxal-5-phosphate)-ethylenediamine-N,N'-diacetic acid]
Protonation / charge state of the ligand (dissociation constants assigned to the protonation sites): anionic and possesses deprotonated metal binding sites
